Experimental data reported in patent US5106856A, “[(Arylalkylpiperidin-4-yl)methyl]-2a,3,4,5-tetrahydro- 1(2H)-acenaphthylen-1-ones and related compounds” (priority 1991, dated 1992).
Where a name gives a salt, the structure may show the parent alone.

Assays:
[1] = test system: Scopolamine Induced Memory Deficit; test: Dark Avoidance Assay (reversal of scopolamine induced memory deficit); assay type: in vivo; conditions: mice, s.c., tested again 24 hours later
Experimental: In this assay mice are tested for their ability to remember an unpleasant stimulus for a period of 24 hours. A mouse is placed in a chamber that contains a dark compartment; a strong incandescent light drives it to the dark compartment, where an electric shock is administered through metal plates on the floor. The animal is removed from the testing apparatus and tested again, 24 hours later, for the ability to remember the electric shock.
If scopolamine, an anticholinergic that is known to cause memory impairment, is administered before an animal's initial exposure to the test chamber, the animal re-enters the dark compartment shortly after being placed in the test chamber 24 hours later. This effect of scopolamine is blocked by an active test compound, resulting in a greater interval before re-entry into the dark compartment.
The results for an active compound are expressed as the percent of a group of animals in which the effect of scopolamine is blocked, as manifested by an increased interval between being placed in the test chamber and re-entering the dark compartment.
Results of this assay for some of the compounds of this invention and those for tacrine and pilocarpine (reference compounds) are presented in Table 2.

[2] = biological target: T1, Brain AChE (acetylcholinesterase, rat striatum) (Rattus norvegicus, UniProt P37136); test: In vitro inhibition of acetylcholinesterase activity in rat striatum; assay type: biochemical, rat (male Wistar); conditions: read-out: Inhibitory Concentration, Brain AChE
T1 construct: corpora striata dissected free, weighed and homogenized in 19 volumes; from tissue; host or cells: corpus striatum homogenate of male Wistar rats
T1 sequence (P37136 32-614): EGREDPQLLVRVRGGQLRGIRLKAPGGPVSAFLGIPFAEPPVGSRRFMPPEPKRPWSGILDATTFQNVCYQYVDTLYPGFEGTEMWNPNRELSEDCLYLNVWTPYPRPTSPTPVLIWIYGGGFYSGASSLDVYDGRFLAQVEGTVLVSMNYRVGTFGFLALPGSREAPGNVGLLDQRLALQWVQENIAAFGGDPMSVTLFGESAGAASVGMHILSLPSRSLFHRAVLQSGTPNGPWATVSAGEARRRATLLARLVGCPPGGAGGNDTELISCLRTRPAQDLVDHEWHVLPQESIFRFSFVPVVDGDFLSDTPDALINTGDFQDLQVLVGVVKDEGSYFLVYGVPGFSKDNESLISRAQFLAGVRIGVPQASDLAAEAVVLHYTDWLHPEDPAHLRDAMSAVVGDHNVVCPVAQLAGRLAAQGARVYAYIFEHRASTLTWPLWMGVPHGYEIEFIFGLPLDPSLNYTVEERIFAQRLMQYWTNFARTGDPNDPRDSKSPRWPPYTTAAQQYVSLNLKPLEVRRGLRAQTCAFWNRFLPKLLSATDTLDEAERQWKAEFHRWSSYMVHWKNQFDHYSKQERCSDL
Experimental: Cholinesterases are found throughout the body, both in the brain and in serum. However, only brain acetylcholinesterase (AChE) distribution is correlated with central cholinergic innervation.
The method described below was used in this invention for assaying cholinesterase activity.
4. A 2 mM stock solution of the test drug is made up in a suitable solvent and q.s. to volume with 0.5 mM DTNB (reagent 3). Drugs are serially diluted (1:10) such that the final concentration (in cuvette) is 10^-4 M and screened for activity. If active, IC50 values are determined from the inhibitory activity of subsequent concentrations.
Male Wistar rats are decapitated, brains rapidly removed, corpora striata dissected free, weighed and homogenized in 19 volumes (approximately 7 mg protein/ml) of 0.05M phosphate buffer, pH 7.2 using a Potter-Elvehjem homogenizer. A 25 microliter aliquot of the homogenate is added to 1.0 milliter vehicle or various concentrations of the test drug and preincubated for 10 minutes at 37° C.
Enzyme activity is measured with the Beckman DU-50 spectrophotometer. This method can be used for IC50 determinations and for measuring kinetic constants.
Substrate concentration is 10 mM diluted 1:2 in assay yielding final concentration of 5 mM. DTNB concentration is 0.5 mM yielding 0.25 mM final concentration. [formula]
IC50 values are calculated from log-probit analysis.

For `CC[C@@H]1C(=O)OC[C@@H]1Cc1cncn1C` [Pilocarpine, reference compound], the “% of Animals with Scopolamine Induced Memory Deficit Reversal” value ([1]; 5 mg/kg of body weight) was 23%.

`O=C1c2cccc3c2C(CCC3)C1CC1CCN(Cc2ccccc2)CC1` (stereo not shown) [2-[(N-Benzylpiperidin-4-yl)methyl]-2a,3,4,5-tetrahydro-1(2H)-acenaphthylen-1-one hydrochloride] gave an IC50 [2] of 1020 nM.

`O=C1c2cccc3c2C(CCC3)C1CC1CCN(Cc2cccc(F)c2)CC1` (stereo not shown) [2-[[N-(3-Fluorobenzyl)piperidin-4-yl]methyl]-2a,3,4,5-tetrahydro-1(2H)-acenaphthylen-1-one hydrochloride] was tested, and the “% of Animals with Scopolamine Induced Memory Deficit Reversal” value ([1]; 0.1 mg/kg of body weight) was 20% and the IC50 [2] was 4100 nM.
